Reference: ChEMBL document CHEMBL5303573, “Mapping human microbiome drug metabolism by gut bacteria and their genes” (Nature, 2019)

Assays:
[1] = The drug is tested on Bifidobacterium breve strain: DSM20213 for biotransformation. The drug concentrations were measured before and after a 12-h incubation by liquid-chromatography-coupled mass spectrometry (LC–MS); settings: 2 µM
[2] = The drug is tested on Bifidobacterium longum subsp. Infantis strain: CCUG52486 for biotransformation. The drug concentrations were measured before and after a 12-h incubation by liquid-chromatography-coupled mass spectrometry (LC–MS); settings: 2 µM
[3] = The drug is tested on Bacteroides caccae strain: ATCC43185 for biotransformation. The drug concentrations were measured before and after a 12-h incubation by liquid-chromatography-coupled mass spectrometry (LC–MS); settings: 2 µM
[4] = The drug is tested on Bacteroides coprophilus strain: DSM18228 for biotransformation. The drug concentrations were measured before and after a 12-h incubation by liquid-chromatography-coupled mass spectrometry (LC–MS); settings: 2 µM
[5] = The drug is tested on Bacteroides fragilis strain: HMW610 for biotransformation. The drug concentrations were measured before and after a 12-h incubation by liquid-chromatography-coupled mass spectrometry (LC–MS); settings: 2 µM
[6] = The drug is tested on Bacteroides fragilis strain: ATCC43859 for biotransformation. The drug concentrations were measured before and after a 12-h incubation by liquid-chromatography-coupled mass spectrometry (LC–MS); settings: 2 µM
[7] = The drug is tested on Bacteroides pectinophilus strain: ATCC43243 for biotransformation. The drug concentrations were measured before and after a 12-h incubation by liquid-chromatography-coupled mass spectrometry (LC–MS); settings: 2 µM
[8] = The drug is tested on Parabacteroides merdae strain: ATCC43184 for biotransformation. The drug concentrations were measured before and after a 12-h incubation by liquid-chromatography-coupled mass spectrometry (LC–MS); settings: 2 µM
[9] = The drug is tested on Anaerotruncus colihominis strain: DSM17241 for biotransformation. The drug concentrations were measured before and after a 12-h incubation by liquid-chromatography-coupled mass spectrometry (LC–MS); settings: 2 µM
[10] = The drug is tested on Clostridium asparagiforme strain: DSM15981 for biotransformation. The drug concentrations were measured before and after a 12-h incubation by liquid-chromatography-coupled mass spectrometry (LC–MS); assay type: ADME; set-up: dose 2 uM, timepoint 0 vs 12 hours; settings: enterocloster asparagiformis, 2 µM
[11] = The drug is tested on Clostridium sp. strain: fecal isolate for biotransformation. The drug concentrations were measured before and after a 12-h incubation by liquid-chromatography-coupled mass spectrometry (LC–MS); settings: 2 µM
[12] = The drug is tested on Ruminococcus lactaris strain: ATCC29176 for biotransformation. The drug concentrations were measured before and after a 12-h incubation by liquid-chromatography-coupled mass spectrometry (LC–MS); settings: 2 µM
[13] = The drug is tested on Ruminococcus torques strain: ATCC27756 for biotransformation. The drug concentrations were measured before and after a 12-h incubation by liquid-chromatography-coupled mass spectrometry (LC–MS); assay type: ADME; set-up: dose 2 uM, timepoint 0 vs 12 hours; settings: 2 µM
[14] = The drug is tested on Providencia rettgeri strain: DSM1131 for biotransformation. The drug concentrations were measured before and after a 12-h incubation by liquid-chromatography-coupled mass spectrometry (LC–MS); assay type: ADME; set-up: dose 2 uM, timepoint 0 vs 12 hours; settings: 2 µM
[15] = bacteroides eggerthii, 12 h, 2 µM
Description: The drug is tested on Bacteroides eggerthii strain: DSM20697 for biotransformation. The drug concentrations were measured before and after a 12-h incubation by liquid-chromatography-coupled mass spectrometry (LC–MS)

[16] = bacteroides fragilis, 12 h, 2 µM
Description: The drug is tested on Bacteroides fragilis strain: 3397 (T10) for biotransformation. The drug concentrations were measured before and after a 12-h incubation by liquid-chromatography-coupled mass spectrometry (LC–MS)

[17] = bacteroides fragilis, 12 h, 2 µM; remark: listed apart in the source
Description: The drug is tested on Bacteroides fragilis strain: DS-208 for biotransformation. The drug concentrations were measured before and after a 12-h incubation by liquid-chromatography-coupled mass spectrometry (LC–MS)

[18] = bacteroides thetaiotaomicron, 12 h, 2 µM
Description: The drug is tested on Bacteroides thetaiotaomicron strain: 7330 for biotransformation. The drug concentrations were measured before and after a 12-h incubation by liquid-chromatography-coupled mass spectrometry (LC–MS)

[19] = parabacteroides distasonis, 12 h, 2 µM
Description: The drug is tested on Parabacteroides distasonis strain: ATCC8503 for biotransformation. The drug concentrations were measured before and after a 12-h incubation by liquid-chromatography-coupled mass spectrometry (LC–MS)

[20] = parabacteroides johnsonii, 12 h, 2 µM
Description: The drug is tested on Parabacteroides johnsonii strain: DSM18315 for biotransformation. The drug concentrations were measured before and after a 12-h incubation by liquid-chromatography-coupled mass spectrometry (LC–MS)

SMILES | Bacterial Biotransformation [1] | Bacterial Biotransformation [2] | Bacterial Biotransformation [3] | Bacterial Biotransformation [4] | Bacterial Biotransformation [5] | Bacterial Biotransformation [6] | Bacterial Biotransformation [7] | Bacterial Biotransformation [8] | Bacterial Biotransformation [9] | Bacterial Biotransformation [10] | Bacterial Biotransformation [11] | Bacterial Biotransformation [12] | Bacterial Biotransformation [13] | Bacterial Biotransformation [14] | Bacterial Biotransformation [15] | Bacterial Biotransformation [16] | Bacterial Biotransformation [17] | Bacterial Biotransformation [18] | Bacterial Biotransformation [19] | Bacterial Biotransformation [20]
O=c1[nH]c2ccccc2n1C1CCN(CCCC(c2ccc(F)cc2)c2ccc(F)cc2)CC1 [PIMOZIDE] | Compound NOT metabolized | Compound NOT metabolized | Compound NOT metabolized | Compound NOT metabolized | Compound NOT metabolized | Compound NOT metabolized | Compound NOT metabolized | Compound NOT metabolized | Compound metabolized | Compound NOT metabolized | Compound NOT metabolized | Compound NOT metabolized | Compound NOT metabolized | Compound NOT metabolized | Compound NOT metabolized | Compound NOT metabolized | Compound NOT metabolized | Compound NOT metabolized | Compound metabolized | Compound NOT metabolized
O=C([O-])C[C@H](O)C[C@H](O)/C=C/c1c(C2CC2)nc2ccccc2c1-c1ccc(F)cc1.O=C([O-])C[C@H](O)C[C@H](O)/C=C/c1c(C2CC2)nc2ccccc2c1-c1ccc(F)cc1.[Ca+2] [PITAVASTATIN CALCIUM] | Compound NOT metabolized | Compound NOT metabolized | Compound NOT metabolized | Compound NOT metabolized | Compound NOT metabolized | Compound NOT metabolized | Compound NOT metabolized | Compound NOT metabolized | Compound NOT metabolized | Compound NOT metabolized | Compound NOT metabolized | Compound NOT metabolized | Compound NOT metabolized | Compound NOT metabolized | Compound NOT metabolized | Compound NOT metabolized | Compound NOT metabolized | Compound NOT metabolized | Compound NOT metabolized | Compound NOT metabolized
C[C@]12C=CC(=O)C=C1CC[C@@H]1[C@@H]2C(=O)C[C@@]2(C)[C@H]1CC[C@]2(O)C(=O)CO [PREDNISONE] | Compound NOT metabolized | Compound NOT metabolized | Compound NOT metabolized | Compound NOT metabolized | Compound NOT metabolized | Compound NOT metabolized | Compound NOT metabolized | Compound NOT metabolized | Compound NOT metabolized | Compound NOT metabolized | Compound NOT metabolized | Compound NOT metabolized | Compound NOT metabolized | Compound NOT metabolized | Compound NOT metabolized | Compound NOT metabolized | Compound NOT metabolized | Compound NOT metabolized | Compound NOT metabolized | Compound NOT metabolized
COc1ccccc1OCC(O)CN1CCN(CC(=O)Nc2c(C)cccc2C)CC1 (stereo not drawn) [RANOLAZINE] | Compound NOT metabolized | Compound NOT metabolized | Compound NOT metabolized | Compound NOT metabolized | Compound NOT metabolized | Compound NOT metabolized | Compound NOT metabolized | Compound NOT metabolized | Compound NOT metabolized | Compound NOT metabolized | Compound NOT metabolized | Compound NOT metabolized | Compound NOT metabolized | Compound NOT metabolized | Compound NOT metabolized | Compound NOT metabolized | Compound NOT metabolized | Compound NOT metabolized | Compound NOT metabolized | Compound NOT metabolized
O=C(O)CCC(=O)O.O=C(O[C@H]1CN2CCC1CC2)N1CCc2ccccc2[C@@H]1c1ccccc1 [SOLIFENACIN SUCCINATE] | Compound NOT metabolized | Compound NOT metabolized | Compound NOT metabolized | Compound NOT metabolized | Compound NOT metabolized | Compound NOT metabolized | Compound NOT metabolized | Compound NOT metabolized | Compound NOT metabolized | Compound NOT metabolized | Compound NOT metabolized | Compound NOT metabolized | Compound NOT metabolized | Compound NOT metabolized | Compound NOT metabolized | Compound NOT metabolized | Compound NOT metabolized | Compound NOT metabolized | Compound NOT metabolized | Compound NOT metabolized
COc1cc2nc(N3CCN(C(=O)C4CCCO4)CC3)nc(N)c2cc1OC (stereo not drawn) [TERAZOSIN] | Compound NOT metabolized | Compound NOT metabolized | Compound NOT metabolized | Compound NOT metabolized | Compound NOT metabolized | Compound NOT metabolized | Compound NOT metabolized | Compound NOT metabolized | Compound NOT metabolized | Compound NOT metabolized | Compound NOT metabolized | – | Compound NOT metabolized | Compound NOT metabolized | Compound NOT metabolized | Compound NOT metabolized | Compound NOT metabolized | Compound NOT metabolized | Compound NOT metabolized | Compound NOT metabolized
CS(=O)(=O)O.O.O.O.O=C1Cc2cc(CCN3CCN(c4nsc5ccccc45)CC3)c(Cl)cc2N1 [ZIPRASIDONE MESYLATE] | Compound NOT metabolized | Compound NOT metabolized | Compound NOT metabolized | Compound NOT metabolized | Compound NOT metabolized | Compound NOT metabolized | Compound NOT metabolized | Compound NOT metabolized | – | Compound NOT metabolized | Compound NOT metabolized | Compound NOT metabolized | Compound NOT metabolized | Compound NOT metabolized | Compound NOT metabolized | Compound NOT metabolized | Compound NOT metabolized | Compound NOT metabolized | Compound metabolized | Compound NOT metabolized
